Laboratory results: ChEMBL document CHEMBL5579878, “Allosteric Activation of Protein Phosphatase 5 with Small Molecules” (J Med Chem, 2024)
Activity calls are given as the source filed them. The calls are words filed in the database; no cut-off is given here.

What was measured:
[1] = test system: HCT-116; assay: Enhancement of HSP90 inhibitor AT13387-induced antiproliferative activity against human HCT-116 cells assessed as fold change in HSP90 inhibitor AT13387 IC50 at 50 uM incubated for 72 hrs by CCK8 assay; assay type: functional
[2] = test system: HCT-116; assay: Effect on HSP70 expression level in human HCT-116 cells at 1 to 100 uM incubated for 24 hrs by Western blot analysis; assay type: functional, cell-based; conditions: dose 1-100 µM
[3] = molecular target: Serine/threonine-protein phosphatase PP1-beta catalytic subunit (Homo sapiens) (UniProt P62140); assay: Inhibition of PP1B (unknown origin) using DiFMUP as substrate at 0.01 to 1000 uM; conditions: dose 0.01-1000 µM
Chain of Serine/threonine-protein phosphatase PP1-beta catalytic subunit (Homo sapiens) (P62140 whole entry): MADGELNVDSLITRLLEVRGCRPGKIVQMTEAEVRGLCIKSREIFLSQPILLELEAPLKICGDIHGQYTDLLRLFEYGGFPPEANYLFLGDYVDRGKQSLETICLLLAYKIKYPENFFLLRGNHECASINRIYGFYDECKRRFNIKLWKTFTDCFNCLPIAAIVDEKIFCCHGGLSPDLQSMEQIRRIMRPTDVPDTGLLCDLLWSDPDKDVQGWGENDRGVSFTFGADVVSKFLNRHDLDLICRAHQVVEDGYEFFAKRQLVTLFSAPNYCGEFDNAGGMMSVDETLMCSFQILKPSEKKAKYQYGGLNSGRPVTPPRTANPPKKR

[4] = test system: T1, Serine/threonine-protein phosphatase 5 (Homo sapiens), P53041 [K430A]; assay: Activation of PP5 K430A mutant (unknown origin) using pNPP as substrate assessed as increase in phosphatase activity at 10 to 200 uM incubated for 30 mins by spectrophotometric analysis; conditions: dose 10-200 µM
T1 sequence (whole entry): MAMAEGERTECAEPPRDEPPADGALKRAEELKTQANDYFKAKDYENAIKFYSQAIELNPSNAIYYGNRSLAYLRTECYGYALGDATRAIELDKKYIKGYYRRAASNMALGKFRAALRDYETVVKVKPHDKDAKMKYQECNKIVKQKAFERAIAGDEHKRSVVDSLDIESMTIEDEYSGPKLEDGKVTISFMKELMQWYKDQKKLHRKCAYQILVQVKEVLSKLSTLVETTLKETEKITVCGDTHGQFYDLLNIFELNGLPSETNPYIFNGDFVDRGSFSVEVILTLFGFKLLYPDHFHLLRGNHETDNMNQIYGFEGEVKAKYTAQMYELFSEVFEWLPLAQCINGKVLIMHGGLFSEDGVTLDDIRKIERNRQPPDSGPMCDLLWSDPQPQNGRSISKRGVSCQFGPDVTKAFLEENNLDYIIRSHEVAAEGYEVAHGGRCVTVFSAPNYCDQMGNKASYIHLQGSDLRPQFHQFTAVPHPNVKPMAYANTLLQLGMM

inhibition [3]: inactive
Activity [4]: inactive
Compound: N=c1oc2cc(F)cc(F)c2cc1C(N)=S
fold change (FC) [1]: 2
Activity [2]: inactive
